The text below walks through data of patent US7205315B2, “Bicyclic imino acid derivatives as inhibitors of matrix metalloproteinases” (Sanofi-Aventis Deutschland GmbH, priority 2003, dated 2007).

Structures are written as SMILES. Structures can show the parent of a compound that is named as a salt.

Common to all, as to type: biochemical
Settings in all cases: APMA-activated proenzyme, fluorescence 328/393 nm

Assay [1] deals with T1, catalytic domain of human gelatinase B (MMP-9) (Homo sapiens, UniProt P14780).
T1 construct: enzyme activity of the catalytic domain of human gelatinase B (MMP-9); purchased Roche, Mannheim 1 758 896
T1 sequence (P14780 107-707 limits assumed): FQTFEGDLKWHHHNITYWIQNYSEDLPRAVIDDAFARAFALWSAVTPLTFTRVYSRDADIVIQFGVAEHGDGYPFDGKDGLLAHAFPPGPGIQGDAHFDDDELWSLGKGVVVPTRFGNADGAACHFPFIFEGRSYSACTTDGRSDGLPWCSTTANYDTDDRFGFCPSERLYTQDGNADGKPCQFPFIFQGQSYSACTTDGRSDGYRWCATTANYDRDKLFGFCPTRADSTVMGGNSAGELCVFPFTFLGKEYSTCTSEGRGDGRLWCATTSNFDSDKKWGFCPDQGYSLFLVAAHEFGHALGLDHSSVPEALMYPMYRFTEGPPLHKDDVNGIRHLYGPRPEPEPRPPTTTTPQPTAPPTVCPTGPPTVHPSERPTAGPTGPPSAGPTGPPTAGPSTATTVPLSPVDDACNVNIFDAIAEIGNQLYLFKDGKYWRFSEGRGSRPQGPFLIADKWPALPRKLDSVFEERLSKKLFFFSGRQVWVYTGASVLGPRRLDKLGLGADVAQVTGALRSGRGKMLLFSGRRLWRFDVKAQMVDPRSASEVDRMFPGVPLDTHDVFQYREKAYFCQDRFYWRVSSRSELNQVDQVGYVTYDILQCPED
Briefly: Enzyme activity of the catalytic domain of human gelatinase B (MMP-9), fluorogenic substrate. On the procedure: e) Determining the enzyme activity of the catalytic domain of human gelatinase B (MMP-9). […] Activation of the proenzyme:
2 parts by volume of proenzyme were incubated, at 37° C. for 4 hours, with 1 part by volume of APMA solution. The APMA solution was prepared from a 10 mmol/l solution of p-aminophenylmercuric acetate in 0.1 mmol/l NaOH by diluting it with 3 parts by volume of tris/HCl buffer, pH 7.5 (see below). The pH was adjusted to between 7.0 and 7.5 by adding 1 mmol/l HCl. After the enzyme had been activated, it was diluted with the tris/HCl buffer to a concentration of 4.2 mU/ml.
In order to measure the activity of the enzyme, 10 μl of enzyme solution were incubated for 15 minutes with 10 μl of a 3% (v/v) buffered solution of dimethyl sulfoxide (reaction 1). In order to measure the enzyme inhibitor activity, 10 μl of enzyme solution were incubated with 10 μl of a 3% (v/v) buffered solution of dimethyl sulfoxide which contained the enzyme inhibitor (reaction 2). Both in the case of reaction 1 and in the case of reaction 2, the enzyme reaction was monitored by fluorescence spectroscopy (328 nm (extinction)/393 nm (emission)) after 10 ul of a 3% (v/v) aqueous solution of dimethyl sulfoxide, which contained 0.15 mmol of the substrate/l, had been added.
(§1) The enzyme activity was presented as increase in extinction/minute.
The inhibitory effect was calculated as percentage inhibition in accordance with the following formula: % inhibition=100−[(increase in extinction/minute in reaction 2)/(increase in extinction/minute in reaction 1)×100].
(§2) The IC50, that is the concentration of inhibitor which is required for 50% inhibition of the enzyme activity, was determined graphically by plotting the percentage inhibitions at different inhibitor concentrations.
The buffer solution contained 0.05% Brij (Sigma, Deisenhofen, Germany) and also 0.1 mol of tris/HCl/l, 0.1 mol of NaCl/l, 0.01 mol of CaCl2/l (pH=7.5). The enzyme solution contained 4.2 mU of the enzyme domain/ml. The substrate solution contained 0.15 mmol of the fluorogenic substrate (7-methoxycoumarin-4-yl)acetyl-Pro-Leu-Gly-Leu-3-(2′,4′-dinitrophenyl)-L-2,3-diaminopropionyl-Ala-Arg-NH2/ (Bachem, Heidelberg, Germany).

In assay [2] the target is T2, catalytic domain of human collagenase-3 (MMP-13) (Homo sapiens, UniProt P45452).
T2 construct: enzyme activity of the catalytic domain of human collagenase-3 (MMP-13); purchased INVITEK, Berlin 30 100 803
Briefly: Enzyme activity of the catalytic domain of human collagenase-3 (MMP-13), fluorogenic substrate. On the procedure: c) Determining the enzyme activity of the catalytic domain of human collagenase-3 (MMP-13).
Activation of the proenzyme:
2 parts by volume of proenzyme were incubated, at 37° C. for 1.5 hours, with 1 part by volume of APMA solution. The APMA solution was prepared from a 10 mmol/l solution of p-aminophenylmercuric acetate in 0.1 mmol/l NaOH by diluting the solution with 3 parts by volume of tris/HCl buffer, pH 7.5 (see below). The pH was adjusted to between 7.0 and 7.5 by adding 1 mmol/l HCl. After the enzyme had been activated, it was diluted with the tris/HCl buffer to a concentration of 1.67 μg/ml.
(§3) In order to measure the enzyme activity, 10 μl of enzyme solution were incubated for 15 minutes with 10 μl of a 3% (v/v) buffered solution of dimethyl sulfoxide (reaction 1). In order to measure the enzyme inhibitor activity, 10 μl of enzyme solution were incubated with 10 μl of a 3% (v/v) buffered solution of dimethyl sulfoxide which contained the enzyme inhibitor (reaction 2).
Both in the case of reaction 1 and in the case of reaction 2, the enzyme reaction was monitored by fluorescence spectroscopy (328 nm (extinction)/393 nm (emission)) after 10 μl of a 3% (v/v) aqueous solution of dimethyl sulfoxide which contained 0.075 mmol of the substrate/1 had been added.
as §1
The effect of the inhibitor was calculated as a percentage inhibition in accordance with the following formula: % inhibition=100−[(increase in extinction/minute in reaction 2)/(increase in extinction/minute in reaction 1)×100].
as §2
The buffer solution contained 0.05% Brij (Sigma, Deisenhofen, Germany) and also 0.1 mol of tris/HCl/l, 0.1 mol of NaCl/l, 0.01 mol of CaCl2/l (pH=7.5). The enzyme solution contained 1.67 μg of the enzyme domain/ml. The substrate solution contained 0.075 mmol of the fluorogenic substrate (7-methoxycoumarin-4-yl)acetyl-Pro-Leu-Gly-Leu-3-(2′,4′-dinitrophenyl)-L-2,3-diaminopropionyl-Ala-Arg-NH2/1 (Bachem, Heidelberg, Germany).

The target of assay [3] is T3, catalytic domain of human gelatinase A (MMP-2) (Homo sapiens, UniProt P08253).
T3 construct: enzyme activity of the catalytic domain of human gelatinase A (MMP-2); purchased INVITEK, Berlin 30 100 602
T3 sequence (P08253 110-465 limits assumed): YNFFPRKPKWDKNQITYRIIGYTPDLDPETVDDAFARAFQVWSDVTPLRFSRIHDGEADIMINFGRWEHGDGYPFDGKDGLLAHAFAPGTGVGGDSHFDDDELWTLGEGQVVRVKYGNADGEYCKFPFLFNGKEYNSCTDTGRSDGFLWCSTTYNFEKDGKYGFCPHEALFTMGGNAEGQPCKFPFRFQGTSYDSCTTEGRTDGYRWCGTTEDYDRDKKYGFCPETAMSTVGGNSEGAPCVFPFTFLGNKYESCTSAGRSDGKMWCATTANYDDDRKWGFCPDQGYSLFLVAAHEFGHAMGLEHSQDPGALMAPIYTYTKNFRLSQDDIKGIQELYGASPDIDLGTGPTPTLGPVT
Briefly: Enzyme activity of the catalytic domain of human gelatinase A (MMP-2), fluorogenic substrate. Here is the method: d) Determining the enzyme activity of the catalytic domain of human gelatinase A (MMP-2). […] Activation of the proenzyme:
2 parts by volume of proenzyme were incubated, at 37° C. for 0.5 hour, with 1 part by volume of APMA solution. The APMA solution was prepared from a 10 mmol/l solution of p-aminophenylmercuric acetate in 0.1 mmol/l NaOH by diluting it with 3 parts by volume of tris/HCl buffer, pH 7.5 (see below). The pH was adjusted to between 7.0 and 7.5 by adding 1 mmol/l HCl. After the enzyme had been activated, it was diluted with the tris/HCl buffer to a concentration of 0.83 μg/ml.
as §3
Both in the case of reaction 1 and in the case of reaction 2, the enzyme reaction was monitored by fluorescence spectroscopy (328 nm (extinction)/393 nm (emission)) after 10 μl of a 3% (v/v) aqueous solution of dimethyl sulfoxide which contained 0.3 mmol of the substrate/1 had been added.
as §1
The effect of the inhibitor was calculated as percentage inhibition in accordance with the following formula: % inhibition=100−[(increase in extinction/minute in reaction 2)/(increase in extinction/minute in reaction 1)×100].
as §2
The buffer solution contained 0.05% Brij (Sigma, Deisenhofen, Germany) and also 0.1 mol of tris/HCl/l, 0.1 mol of NaCl/l, 0.01 mol of CaCl2/l (pH=7.5). The enzyme solution contained 0.83 μg of the enzyme domain/ml. The substrate solution contained 0.3 mmol of the fluorogenic substrate (7-methoxycoumarin-4-yl)acetyl-Pro-Leu-Gly-Leu-3-(2′,4′-dinitrophenyl)-L-2,3-diaminopropionyl-Ala-Arg-NH2/l (Bachem, Heidelberg, Germany).

Turning to `O=C(NO)[C@H]1[C@H]2CCCC[C@H]2CCN1S(=O)(=O)c1ccc(-c2ccc(Cl)cc2)cc1` (single isomer, unassigned) [Example 14, 2-(4′-chlorobiphenyl-4-sulfonyl)decahydroisoquinoline-1-(N-hydroxy)-carboxamide], the IC50 (as a rule, the concentration at which inhibition is half-maximal) stood at 3.5 nM in assay [1], 2 nM in assay [2] and 2 nM in assay [3].
For the compound `O=C(NO)[C@@H]1[C@@H]2CCCC[C@@H]2CCN1S(=O)(=O)c1ccc(-c2ccc(Cl)cc2)cc1` (single isomer, unassigned) [Example 15, 2-(4′-chlorobiphenyl-4-sulfonyl)decahydroisoquinoline-1-(N-hydroxy)-carboxamide], the IC50 was 4000 nM in assay [1], 2300 nM in assay [2] and 2300 nM in assay [3].
Take `O=C(NO)C1C2CCCCC2CCN1S(=O)(=O)c1ccc(-c2ccc(Cl)cc2)cc1` (stereo not drawn) [Example 3, 2-(4′-chlorobiphenyl-4-sulfonyl)decahydroisoquinoline-1-(N-hydroxy)-carboxamide]: the IC50 in assay [1] stood at 100 nM; in assay [2], 3 nM; in assay [3], 30 nM.
Take `O=C(NO)C1C2CCCCC2CCN1S(=O)(=O)c1ccc(Oc2ccccc2)nc1` (stereo not drawn) [Example 5, 2-(6-phenoxypyridine-3-sulfonyl)decahydroisoquinoline-1-(N-hydroxy)-carboxamide trifluoroacetate]: the IC50 in assay [1] was found to be 1.2 nM; in assay [2] it was 1.8 nM; in assay [3] it was 2 nM.
Consider `O=C(NO)C1C2CCCCC2CCN1S(=O)(=O)CCc1ccc(-c2ccc(Cl)cc2)cc1` (stereo not drawn) [Example 7, 2-[2-(4′-chlorobiphenyl-4-yl)ethanesulfonyl]decahydroisoquinoline-1-(N-hydroxy)carboxamide], for which the IC50 stood at 3 nM in assay [1], 7 nM in assay [2] and 4 nM in assay [3].
The corresponding values for `O=C(NO)C1C2CCCCC2CCN1S(=O)(=O)c1ccc(Oc2ccncc2)cc1` (stereo not drawn) [Example 9, 2-[4-(pyridin-4-yloxy)benzenesulfonyl]decahydroisoquinoline-1-(N-hydroxy)carboxamide trifluoroacetate] are 12 nM, 21 nM and 20 nM.
Turning to `COc1ccc(Oc2ccc(S(=O)(=O)N3CCC4CCCCC4C3C(=O)NO)cc2)cc1` (stereo not drawn) [Example 11, 2-[4-(4-methoxyphenoxy)benzenesulfonyl]decahydroisoquinoline-1-(N-hydroxy)carboxamide], the results for the IC50 in assay [1], in assay [2] and in assay [3] were 2 nM, 1.5 nM and 2 nM, respectively.
Consider `O=C(NO)C1C2CCCCC2CCN1S(=O)(=O)c1ccc(Oc2ccc(OCC(F)(F)F)cc2)cc1` (stereo not drawn) [Example 13, 2-{4-[4-(2,2,2-trifluoroethoxy)phenoxy]benzenesulfonyl}decahydroisoquinoline-1-(N-hydroxy)carboxamide], for which the 50% inhibitory concentration (IC50) in assay [1] was found to be 2 nM; in assay [2] it was 2 nM; in assay [3], 2.6 nM.
With `O=C(NO)C1C2CCCCC2CCN1S(=O)(=O)c1ccc(-c2ccc(OC(F)(F)F)cc2)cc1` (stereo not drawn) [Example 19, 2-(4′-trifluoromethoxybiphenyl-4-sulfonyl)decahydroisoquinoline-1-(N-hydroxy)carboxamide], the 50% inhibitory concentration (IC50) in assay [1] worked out at 5 nM; in assay [2], 3 nM; in assay [3] it was 3 nM.
`O=C(NO)C1C2CCCCC2CCN1S(=O)(=O)c1ccc(Oc2ccc(F)cc2)cc1` (stereo not drawn) [Example 20, 2-[4-(4-fluorophenoxy)benzenesulfonyl]decahydroisoquinoline-1-(N-hydroxy)carboxamide]: the IC50 in assay [1], in assay [2] and in assay [3] was 2 nM in each case.
Consider `O=C(NO)[C@H]1[C@H]2CCCC[C@H]2CCN1S(=O)(=O)c1ccc(Oc2ccc(F)cc2)cc1` [Example 21, 2-[4-(4-fluorophenoxy)benzenesulfonyl]decahydroisoquinoline-1-(N-hydroxy)carboxamide], for which the IC50 in assay [1] was 0.45 nM; in assay [2], 1.3 nM; in assay [3], 1.5 nM.
As for `O=C(NO)C1C2CCCCC2CCN1S(=O)(=O)c1ccc(Oc2ccc(OC(F)(F)F)cc2)cc1` (stereo not drawn) [Example 23, 2-[4-(4-trifluoromethoxyphenoxy)benzenesulfonyl]decahydroisoquinoline-1-(N-hydroxy)carboxamide], the IC50 in assay [1] was found to be 2 nM; in assay [2], 2.1 nM; in assay [3], 2 nM.
In the case of `N#Cc1ccc(Oc2ccc(S(=O)(=O)N3CCC4CCCCC4C3C(=O)NO)cc2)cc1` (stereo not drawn) [Example 26, 2-[4-(4-cyanophenoxy)benzenesulfonyl]decahydroisoquinoline-1-(N-hydroxy)carboxamide], the IC50 was determined as 3 nM in assay [1], 3 nM in assay [2] and 8 nM in assay [3].
